# According to ChEMBL document CHEMBL3507680, “University of Dundee, Gates Library screen for HepG2 cell viability”:
# Experiment: Human HepG2 cell viability assay in 384 well format
# Type: toxicity, cell-based
# Design: dose 125 nL, time 70.5 hour; cytotoxicity at 70.5 h: concentration not given beside the values
# Conditions: HepG2 cells, read-out: Inhibition
row,Structure (SMILES),cytotoxicity at 70.5 h [%]
1,COC(=O)c1cccc(C(=O)N2CCN(c3ccccc3F)CC2)n1,28.8
2,O=C(Cn1ccc2sccc2c1=O)NCc1ccc2c(c1)OCO2,-6.54
3,CCCS(=O)(=O)Nc1ccc2c(c1)OCC(C)(C)C(=O)N2C,7.24
4,COc1cccc(CNc2c(C)cnc3c2c(=O)n(C)c(=O)n3C)c1,35.6
5,Cc1cnc2c(c1NCc1ccncc1)c(=O)n(C)c(=O)n2C,-2.95
6,CCc1cnc2c(c1Nc1ccc(OC)cc1)c(=O)n(C)c(=O)n2C,21.4
7,CCc1cnc2c(c1NCc1cccc(OC)c1)c(=O)n(C)c(=O)n2C,33.7
8,COCCNC(=O)Cn1nc(C(C)C)c2cnn(C(C)(C)C)c2c1=O,-3.75
9,CCCC(=O)Nc1sc(C(=O)OCC)c(C)c1C#N,-2.39
10,CCCc1cc(=O)n(CC(N)=O)c(-n2nc(C)cc2C)n1,-4.18
11,CC1CCN(S(=O)(=O)c2cccn(CC(=O)NC3CCCC3)c2=O)CC1,-3.39
12,COc1ccc(Br)c(C(=O)NCC2CCN(S(=O)(=O)C3CC3)CC2)c1,16.8
13,CCOc1ccc(NC(=O)CN2CCN(c3nccn3C)CC2)cc1,-2.94
14,COc1ccc(C(=O)NCC(c2cccn2C)N2CCCC2)c(OC)c1 (stereo not drawn),14.2
15,Cn1cccc1C(CNC(=O)c1ccc(F)cc1F)N1CCCCCC1 (stereo not drawn),34.1
16,COc1ccc(C)cc1S(=O)(=O)NCC(c1cccn1C)N(C)C (stereo not drawn),-3.74
17,Cc1cccc(C(=O)NCCCN2CCN(c3ccccc3)CC2)c1,7.06
18,COc1ncccc1C(=O)N1CCC(c2nnc(C3CC3)o2)CC1,4.57
19,COc1nn(C)cc1C(=O)N1CCC(c2nnc(C3CC3)o2)CC1,-1.01
20,O=C(NCC(Cc1cccc(F)c1)N1CCCC1=O)c1ccccc1 (stereo not drawn),4.11
21,O=S(=O)(Cc1ccccc1)NCC1CCN(c2cnccn2)CC1,4.32
22,Cc1nc(CNC(=O)C(C)Oc2ccccc2F)no1 (stereo not drawn),-5.02

row,Structure (SMILES),cytotoxicity at 70.5 h [%]
1,COc1ccc(OC)c([C@@H]2N[C@H](c3nccs3)Cc3ccsc32)c1,-11.6
2,CCOc1cc([C@H]2N[C@@H](c3nc(C)cs3)Cc3ccsc32)ccc1OC,-6.01
3,CCS(=O)(=O)N1C[C@@H](C(=O)NC(C)C)[C@@]2(Cc3ccccc3C(=O)N2)C1,-11.3
4,COc1cc(C(=O)NC(C)(C)CN2CCN(C)CC2)c2ccccc2n1,-11.5
5,OC1CCCOC12CCN(CCCOc1ccccc1F)CC2 (stereo not drawn),-10.9
6,CC(C)(C)NC(=O)[C@@H]1CNC[C@]12Cc1ccccc1C(=O)N2,-4.03
7,CCC1CCCCN1C(=O)Cn1nc(-c2ccc(C)o2)cc(N)c1=O (stereo not drawn),-15.1
8,CN1C[C@@H](C(=O)NC2CC2)[C@@]2(COc3ccc(F)cc3C2=O)C1,12.2
9,CN(C)Cc1cnc(C2CCN(C(=O)c3cccc(F)c3)C2)[nH]1 (stereo not drawn),20.2
10,CN(C)Cc1cnc(C2CCN(C(=O)c3cc(F)cc(F)c3)C2)[nH]1 (stereo not drawn),-2.53
11,CNC(=O)C1(Cc2cc(C(C)C)no2)CCN(Cc2cccnc2)C1 (stereo not drawn),-5.78
12,CO[C@H]1C[C@@H]2CN(C(=O)c3cccc4c3OCCO4)C[C@@H]2C1,20.7
13,Cc1noc(C)c1-c1cc(CCC2CN(C(=O)C(C)C)CCO2)ncn1 (stereo not drawn),-3.99
14,O[C@H]1CN(CCCOc2ccccc2F)CC[C@@]12CCCO2,-2.73
15,Cc1cc(C(F)F)nn1C(C)C(=O)NCc1ncc[nH]1 (stereo not drawn),-1.75
16,COCC(=O)N(C)Cc1nc(N2CCCC2)ncc1-c1ccncc1,13.6
17,COc1ccc(Cn2c(C3CCNCC3)cc3cccnc32)cc1,3.16
18,O[C@@H]1CN(Cc2ccc(F)c(F)c2)CC[C@H]1NCc1ccccn1,22.5
19,CN(C)Cc1cnc(C2CCN(C(=O)c3ccccc3F)C2)[nH]1 (stereo not drawn),-3.2
20,Cc1ccc(CNC(=O)CN2CCN(CC(O)C3CC3)CC2)cc1 (stereo not drawn),-8.6
21,Cc1ccc(CNC(=O)CN2CCN(CC(O)c3ccco3)CC2)cc1 (stereo not drawn),29.2
